# Laboratory results as given in US20250188387A1, “LOW TOXICITY SURFACTANT BOOSTER COMPOSITIONS FOR FILTRATION MEMBRANE CLEANING APPLICATIONS” (ECOLAB USA INC., priority 2023, published 2025).
# Experiments:
# [1] = Toxicity screening of surfactants by derived no-effect level (DNEL); conditions: derived from toxicological studies supplied by the surfactant manufacturer, with assessment factors
# Source text: As referred to herein, a DNEL is substance specific and is commonly used as a health risk-based threshold in toxicological risk assessments. As a point of departure for the derivation of a DNEL varying toxicological studies are used, supplied by the surfactant manufacturer. […] Depending on evaluated endpoint and different parameters of these studies certain assessment factors are applied to derivate the DNEL. Used herein are scientifically justified and publicly recognized methods (e.g. by EFSA or ECETOC) for the determination of these assessment factors.
# Surfactants were screened for lower toxicity levels.
# [2] = Redeposition of ghee onto coupons; conditions: pH 11, 50° C., 1 g ghee in 600 g water, 10 minutes, FIG. 5
# Method: Each coupon was new and conditioned by soaking in methyl alcohol for 30 seconds, then placed in 60° C. oven for 30 minutes. 600 g of 0 grain water was heated in a 1000 ml beaker to 50° C. The pH of the mixture was adjusted to 11 using NaOH. The chemistry was added to the solution and mixed for one minute. Additionally, 1 g of melted ghee was added to the solution and mixed for one minute. Three cleaned and weighed coupons were added using a coupon holder. After 10 minutes, the coupons were removed and dipped in DI water once. Coupons were left to dry overnight and weighed the following day. […] Therefore, after the soil is removed it is less likely to be redeposited onto the surface again.
Substance,DNEL (derived no-effect level) [1],redeposition of butterfat onto coupons [2]
Nonylphenol ethoxylate [NPE],less than 1,–
Alkyl polyglucosides [APGs],–,helps prevent a larger amount of butterfat from being deposited
